# Like-named read-outs stand apart in the source and are kept apart here.
# What was measured:
# M. tuberculosis H37Rv [1] = assay: Conventional CFU determination in infected macrophages; type: cell-based, Mycobacterium tuberculosis
# BJ-Skin = assay: Cytotoxicity assay (resazurin); type: cell-based; settings: 5 days
# Experimental: (§1) In order to address compound toxicity, seven cell lines originating from different body tissues were cultivated in the presence of 3-fold dilutions of compounds starting from 100 μM. After 5 days of culture, cell viability was assessed by the resazurin test. Briefly, cells were incubated with 10 μg/mL of resazurin (Sigma-Aldrich St. Louis, Mo.) for 4 h at 37° C. under 5% CO2. Resofurin fluorescence (RFU) was measured as indicated above. Percentage of toxicity on cells was calculated as follows: Cytotoxicity (%)=(RFUDMSO−RFUBlank)−(RFUcompound−RFUblank)/(RFUDMSO−RFUBlank)×100. Percentage of cytotoxicity was plotted against compound concentration and the minimal toxic concentration (MTC50) was determined by non-linear regression analysis as the lowest compound concentration where fifty percent toxicity was observed on the corresponding cell line.
# HEK293-Kidney = assay: Cytotoxicity assay (resazurin); type: cell-based; settings: 5 days
# Experimental: as §1
# HepG2-Hepatocytes = assay: Cytotoxicity assay (resazurin); type: cell-based; settings: 5 days
# Experimental: as §1
# MRC5-Lung = assay: Cytotoxicity assay (resazurin); type: cell-based; settings: 5 days
# Experimental: as §1
# SK-N-SH-Brain = assay: Cytotoxicity assay (resazurin); type: cell-based; settings: 5 days
# Experimental: as §1
# [2] = tested on: M. tuberculosis clinical isolates; type: cell-based, Mycobacterium tuberculosis
# M. tuberculosis H37Rv [3] = assay: MIC, in vitro bacterial growth assay; type: cell-based; settings: Mycobacterium tuberculosis
# M. tuberculosis H37Ra = assay: MIC, in vitro bacterial growth assay; type: cell-based; settings: Mycobacterium tuberculosis
# [4] = tested on: M. tuberculosis Beijing 1237; assay: MIC, in vitro bacterial growth assay; type: cell-based; settings: Mycobacterium tuberculosis, BEIJING1237; laboratory strain Beijing 1237
# M. bovis BCG Tokyo = assay: microbe, parasite or virus in culture; type: cell-based; settings: Mycobacterium tuberculosis variant bovis BCG
# M. bovis BCG Pasteur = assay: microbe, parasite or virus in culture; type: cell-based; settings: Mycobacterium tuberculosis variant bovis BCG
# M. smegmatis mc^2 155 = assay: MIC, in vitro bacterial growth assay; type: cell-based, Mycobacterium smegmatis; settings: for MIC: Mycolicibacterium smegmatis, MC^2155
# Antimicrobial spectrum [5] = type: cell-based; settings: Gram-negative panel
# Antimicrobial spectrum [6] = type: cell-based; settings: Gram-positive panel
# C. striatum = assay: Antimicrobial spectrum; type: cell-based, Corynebacterium; settings: for MIC: Corynebacterium C. striatum
# C. jeikeium = assay: Antimicrobial spectrum; type: cell-based, Corynebacterium; settings: for MIC: Corynebacterium C. jeikeium
# [7] = tested on: Fungi: Candida albicans, C. glabrata, C. parapsilosis; assay: Antimicrobial spectrum; type: cell-based; settings: Candida panel
# [8] = tested on: panel of cell lines derived from different body tissue; assay: Cytotoxicity assay (resazurin), whole panel; settings: 5 days co-incubation, 133 up to 100 μM
# Jurkat-T-cell = assay: Cytotoxicity assay (resazurin); type: cell-based; settings: 5 days
# Experimental: as §1
# THP-1-Monocytes = assay: Cytotoxicity assay (resazurin); type: cell-based; settings: 5 days
# Experimental: as §1
# BCG Pasteur-Tokyo = assay: microbe, parasite or virus in culture; type: cell-based; settings: Mycobacterium tuberculosis variant bovis BCG
# [9] = tested on: Gram-negative: Acinetobacter baumannii, Escherichia coli, Enterobacter cloacae, E. aerogenes, Klebsiella oxytoca, Pseudomonas aeruginosa, Salmonella enteridis …; assay: Antimicrobial spectrum; type: cell-based; settings: Gram-negative panel, clinical isolates from CHU d'Angers
# [10] = tested on: Gram-positive: Staphylococcus aureus, S. epidermis, S. capitis, S. xylosus, Micrococcus luteus, Listeria innocua, Lactobacillus gallinarum, group G …; assay: Antimicrobial spectrum; type: cell-based; settings: Gram-positive panel, clinical isolates from CHU d'Angers
# in vitro = settings: human
# Primary BMDM = assay: Cytotoxicity assay (resazurin); settings: 5 days
# [11] = tested on: Primary human macrophages; assay: Cytotoxicity assay (resazurin); settings: 5 days
# [12] = compounds 5 μM, Raw264.7, mouse bone marrow-derived macrophages, human primary macrophages, five days after infection
# [13] = laboratory strain H37Rv, read-out: MIC
# [14] = laboratory strain H37Ra, read-out: MIC
compound,measurement,setting,value
"COc1ccc(OCCNC(=O)c2cc([N+](=O)[O-])cc([N+](=O)[O-])c2)cc1 [compound 4, N-(2-(4-Methoxyphenoxy)ethyl)-3,5-dinitrobenzamide]",decrease in the number of CFUs,M. tuberculosis H37Rv [1]; [12],ten-fold decrease
same,Range of MTC50,BJ-Skin,>100 µM
same,Range of MTC50,HEK293-Kidney,>100 µM
same,Range of MTC50,HepG2-Hepatocytes,>100 µM
same,Range of MTC50,MRC5-Lung,>100 µM
same,Range of MTC50,SK-N-SH-Brain,>100 µM
same,Range of MICs for multiple strains,"[2]; Drug Sensitive, Tissue",0.38 µM
same,Range of MICs for multiple strains,"[2]; INH^R RIF^R Strep^R, Sputum",0.1 µM
same,Range of MICs for multiple strains,"[2]; INH^R RIF^R Strep^R, Tissue",0.05 to 0.1 µM
same,Range of MICs for multiple strains,"[2]; MDR, Sputum",0.05 to 0.1 µM
same,Range of MICs for multiple strains,"[2]; MDR, Tissue",0.05 to 0.1 µM
same,Range of MICs for multiple strains,"[2]; RIF^R, Sputum",0.05 µM
same,Range of MICs for multiple strains,"[2]; RIF^R, Tissue",0.02 to 0.05 µM
same,Range of MICs for multiple strains,"[2]; XDR, Sputum",0.02 to 0.05 µM
same,Range of MICs for multiple strains,"[2]; XDR, Tissue",0.05 to 0.1 µM
same,MIC,M. tuberculosis H37Rv [3]; [13],0.6 µM
same,MIC,M. tuberculosis H37Ra; [14],1.2 µM
same,MIC,[4],0.3 µM
same,MIC,M. bovis BCG Tokyo,1.2 µM
same,MIC,M. bovis BCG Pasteur,1.2 µM
same,MIC,M. smegmatis mc^2 155,1.2 µM
same,MIC,Antimicrobial spectrum [5],> 250 µM
same,MIC,Antimicrobial spectrum [6],> 250 µM
same,MIC,C. striatum,27 µM
same,MIC,C. jeikeium,2.7 µM
same,MIC,[7],> 250 µM
same,cytotoxicity against the panel of cell lines,[8],no cytotoxicity
"O=C(NCCOCc1ccccc1)c1cc([N+](=O)[O-])cc([N+](=O)[O-])c1 [compound 24, N-(2-(Benzyloxy)ethyl)-3,5-dinitrobenzamide]",decrease in the number of CFUs,M. tuberculosis H37Rv [1]; [12],ten-fold decrease
same,Range of MTC50,BJ-Skin,>100 µM
same,Range of MTC50,HEK293-Kidney,>100 µM
same,Range of MTC50,HepG2-Hepatocytes,>100 µM
same,Range of MTC50,MRC5-Lung,>100 µM
same,Range of MTC50,SK-N-SH-Brain,>100 µM
same,Range of MICs for multiple strains,"[2]; Drug Sensitive, Tissue",0.31 µM
same,Range of MICs for multiple strains,"[2]; INH^R RIF^R Strep^R, Sputum",0.08 µM
same,Range of MICs for multiple strains,"[2]; INH^R RIF^R Strep^R, Tissue",0.04 to 0.08 µM
same,Range of MICs for multiple strains,"[2]; MDR, Sputum",0.04 to 0.08 µM
same,Range of MICs for multiple strains,"[2]; MDR, Tissue",0.04 to 0.08 µM
same,Range of MICs for multiple strains,"[2]; RIF^R, Sputum",0.08 µM
same,Range of MICs for multiple strains,"[2]; RIF^R, Tissue",0.08 µM
same,Range of MICs for multiple strains,"[2]; XDR, Sputum",0.04 to 0.08 µM
same,Range of MICs for multiple strains,"[2]; XDR, Tissue",0.08 µM
same,MIC,M. tuberculosis H37Rv [3]; [13],0.6 µM
same,MIC,M. tuberculosis H37Ra; [14],1.3 µM
same,MIC,[4],0.1 µM
same,MIC,M. bovis BCG Tokyo,0.6 µM
same,MIC,M. bovis BCG Pasteur,1.2 µM
same,MIC,M. smegmatis mc^2 155,0.6 µM
same,MIC,Antimicrobial spectrum [5],> 250 µM
same,MIC,Antimicrobial spectrum [6],> 250 µM
same,MIC,C. striatum,27 µM
same,MIC,C. jeikeium,2.7 µM
same,MIC,[7],> 250 µM
same,cytotoxicity against the panel of cell lines,[8],no cytotoxicity
"Cc1cccn2c(=O)c(C=O)c(Nc3cccc(Cl)c3)nc12 [compound 133, 2-(3-Chlorophenylamino)-9-methyl-4-oxo-4H-pyrido[1,2-a]pyrimidine-3-carbaldehyde]",decrease in the number of CFUs,"M. tuberculosis H37Rv [1]; human and mouse cells, seven days after infection, 232 at 20 μM",ten-fold decrease
same,Range of MTC50,BJ-Skin,>100 µM
same,Range of MTC50,HEK293-Kidney,>100 µM
same,Range of MTC50,HepG2-Hepatocytes,>100 µM
same,Range of MTC50,Jurkat-T-cell,>100 µM
same,Range of MTC50,MRC5-Lung,>100 µM
same,Range of MTC50,SK-N-SH-Brain,>100 µM
same,Range of MTC50,THP-1-Monocytes,>100 µM
same,Range of MICs for multiple strains,"[2]; Drug Sensitive, Tissue",2.5 to 5 µM
same,Range of MICs for multiple strains,"[2]; INH^R RIF^R Strep^R, Sputum",0.3 to 1.2 µM
same,Range of MICs for multiple strains,"[2]; INH^R RIF^R Strep^R, Tissue",1.2 µM
same,Range of MICs for multiple strains,"[2]; MDR, Sputum",0.3 to 1.2 µM
same,Range of MICs for multiple strains,"[2]; MDR, Tissue",1.2 µM
same,Range of MICs for multiple strains,"[2]; RIF^R, Sputum",2.5 µM
same,Range of MICs for multiple strains,"[2]; RIF^R, Tissue",1.2 µM
same,Range of MICs for multiple strains,"[2]; XDR, Sputum",0.6 to 2.5 µM
same,Range of MICs for multiple strains,"[2]; XDR, Tissue",0.3 to 5 µM
same,MIC,M. tuberculosis H37Rv [3]; H37RV,2 µM
same,MIC,M. tuberculosis H37Ra; H37RA,2 µM
same,MIC,M. bovis BCG Pasteur,2 µM
same,MIC,BCG Pasteur-Tokyo,2 µM
same,MIC,"M. smegmatis mc^2 155; mc^2 155, read-out: MIC",> 100 µM
same,MIC (μM),M. smegmatis mc^2 155; mc^2 155,no effect
same,antimicrobial effect,[9],NE (NE: No effect up to 100 μg/mL equivalent to 320 μM)
same,antimicrobial effect,[10],NE (NE: No effect up to 100 μg/mL equivalent to 320 μM)
same,antimicrobial effect,"C. striatum; C. striatum, clinical isolates from CHU d'Angers",NE (NE: No effect up to 100 μg/mL equivalent to 320 μM)
same,antimicrobial effect,"C. jeikeium; C. jeikeium, clinical isolates from CHU d'Angers",NE (NE: No effect up to 100 μg/mL equivalent to 320 μM)
same,antimicrobial effect,[7]; clinical isolates from CHU d'Angers,NE (NE: No effect up to 100 μg/mL equivalent to 320 μM)
same,selectivity ratio,in vitro,> 50
same,Range of MTC50,Primary BMDM,>100 µM
same,Range of MTC50,[11],>100 µM
same,cytotoxicity against the panel of cell lines,[8],no cytotoxicity
